# Where no end group is shown, it is not given here.
# How the values were obtained:
# [1] = tested on: epitope peptide; experiment: Antibody titer (GMT) of serum of mice administered AJP001 conjugated peptide, ELISA; type: in vivo, mouse; details: BALB/c mice, 0.5 mg/body intradermal with equal amount of 2% Alhydrogel, 3 times at two-week intervals; serum 6 weeks after initial administration; titer to each epitope sequence
# Protocol: AJP001 conjugated peptide having one of the B cell epitope sequences of SEQ ID NOs: 1-5 was dissolved in physiological saline and intradermally administered twice to BALB/c mice (female, 6-week-old, N=5-6) at 0.5 mg/body at 2-week intervals. Blood was collected before administration and 5 weeks after the initial administration, and the antibody titer against each AJP001 conjugated peptide and the binding ability to recombinant mouse IL-23 protein (rmIL-23) were measured by the ELISA method. Specifically, a 96-well plate immobilized with an epitope peptide dissolved at 10 μg/mL in carbonate buffer was blocked with 5% skim milk/PBS, and then serum serially diluted with 5% skim milk/PBS was added, and the mixture was left standing at 4° C. overnight. After washing the wells with PBS-T, HRP-labeled anti-mouse IgG antibody (GE Healthcare) diluted with 5% skim milk/PBS was added and the mixture was shaken at room temperature for 3 hr. After washing the wells with PBS-T, TMB solution (SIGMA) was added, the wells were allowed to stand for 30 min in the dark, the reaction was stopped by adding 0.5M H2SO4, and the absorbance at 450 nm was measured using a plate reader. The serum dilution rate that gave 1/2 (OD=1.75) of the maximum absorbance was defined as the antibody titer, and the geometric mean titer: GMT was calculated from the individual values. Binding to IL-23 protein was measured by the ELISA method in the same manner as the antibody titer, using rmIL-23 (Antibodies-online GmbH) as the solid-phased antigen and goat serum for blocking.
# AJP001 conjugated peptide (SEQ ID NO: 2) was dissolved in physiological saline and intradermally administered to BALB/c mice (female, 6-week-old, N=6) at 1 mg/body 3 times at two-week intervals, and blood was collected every 2 weeks until 8 weeks. The antibody titer (GMT) of all the collected sera and the binding ability to rmIL-23 of the serum at the time point of 6 weeks were measured by the ELISA method (same method as in Example 1). The antibody titer and the binding of the induced antibody to rmIL-23 at each time point are shown in FIGS. 2 (a) and (b), respectively.
# AJP001 conjugated peptide (SEQ ID NOs: 6-37) was dissolved in physiological saline, mixed with an equal amount of 2% Alhydrogel (invivogen), and this was intradermally administered to BALB/c mice (female, 6-week-old, N=5-6) at 0.5 mg/body 3 times at two-week intervals. Blood was collected before administration and at the time point of 6 weeks after initial administration, and the antibody titer (GMT) to each epitope sequence and binding ability to recombinant human IL-23 protein (rhIL-23) (Peprotech) were measured by the ELISA method (same method as in Example 1). The binding to rhIL-23 was evaluated by a binding ratio to normal serum by calculating the ratio of the absorbance of a well added with normal mouse serum to the absorbance of a well added with antiserum derived from a mouse administered with each AJP001 conjugated peptide (SEQ ID NOs: 6-37). In addition, the neutralization activity of mouse antiserum was evaluated using an action on IL-17 production in rhIL-23 stimulated mouse splenocyte as an index. The spleen of normal BALB/c mouse (female, 5-week-old, N=3) was triturated using a syringe barrel and a cell strainer and washed with and suspended in HBSS (−). Erythrocytes were then removed using ACK Buffer (Thermo fisher scientific), and splenocytes were isolated. The splenocytes were prepared to 2.5×10^6 cells/mL with 10% FBS/1% penicillin/streptomycin/4 ng/mL rmIL-2-containing RPMI1640 medium (culture medium), and seeded in a 96 well plate at 100 μl/well. The antiserum (final concentration 15-fold) of the mice administered with each AJP001 conjugated peptide and rhIL-23 (final concentration 10 ng/ml) were added to the culture medium, reacted at 37° C. for 2 hr, added at 100 μL/well to a 96-well plate seeded with splenocytes, and cultured for 3 days in a 37° C./5% CO2 incubator. […]
# [2] = tested on: recombinant human IL-23 protein (rhIL-23); experiment: Binding of mouse antiserum to rhIL-23, ELISA; details: rhIL-23 ELISA; antiserum of BALB/c mice 6 weeks after initial administration, 0.5 mg/body with Alhydrogel
# Protocol: (§1) AJP001 conjugated peptide (SEQ ID NOs: 6-37) was dissolved in physiological saline, mixed with an equal amount of 2% Alhydrogel (invivogen), and this was intradermally administered to BALB/c mice (female, 6-week-old, N=5-6) at 0.5 mg/body 3 times at two-week intervals. Blood was collected before administration and at the time point of 6 weeks after initial administration, and the antibody titer (GMT) to each epitope sequence and binding ability to recombinant human IL-23 protein (rhIL-23) (Peprotech) were measured by the ELISA method (same method as in Example 1). The binding to rhIL-23 was evaluated by a binding ratio to normal serum by calculating the ratio of the absorbance of a well added with normal mouse serum to the absorbance of a well added with antiserum derived from a mouse administered with each AJP001 conjugated peptide (SEQ ID NOs: 6-37). In addition, the neutralization activity of mouse antiserum was evaluated using an action on IL-17 production in rhIL-23 stimulated mouse splenocyte as an index. The spleen of normal BALB/c mouse (female, 5-week-old, N=3) was triturated using a syringe barrel and a cell strainer and washed with and suspended in HBSS (−). Erythrocytes were then removed using ACK Buffer (Thermo fisher scientific), and splenocytes were isolated. The splenocytes were prepared to 2.5×10^6 cells/mL with 10% FBS/1% penicillin/streptomycin/4 ng/mL rmIL-2-containing RPMI1640 medium (culture medium), and seeded in a 96 well plate at 100 μl/well. The antiserum (final concentration 15-fold) of the mice administered with each AJP001 conjugated peptide and rhIL-23 (final concentration 10 ng/ml) were added to the culture medium, reacted at 37° C. for 2 hr, added at 100 μL/well to a 96-well plate seeded with splenocytes, and cultured for 3 days in a 37° C./5% CO2 incubator. An untreated well and a control well to which normal mouse serum and rhIL-23 were added were provided. IL-17A/F in the culture supernatant was measured using Mouse IL-17A/F ELISA kit (R&D systems), the proportion (%) of IL-17 to normal serum was calculated from the IL-17 concentrations of untreated well (A), control well (B), and well (C) to which antiserum of the mice administered with each AJP001 conjugated peptide was added and according to the following formula, and the neutralization activity was evaluated.
# AJP001 conjugated peptide (SEQ ID NO: 6) was dissolved in physiological saline and intradermally administered to BALB/c mice (female, 6-week-old, N=6) at 1 mg/body 3 times at two-week intervals, and blood was collected every 2 weeks until 8 weeks. The antibody titer (GMT) of all the collected sera and the binding ability to rhIL-23 of the serum at 6 weeks were measured by the ELISA method. In FIG. 5, “*” means P<0.05.
# [3] = tested on: IL-17 production in rhIL-23 stimulated mouse splenocyte; experiment: Neutralization activity of mouse antiserum: IL-17 production in rhIL-23 stimulated mouse splenocyte; type: cell-based; details: antiserum final 15-fold, rhIL-23 10 ng/ml, 3 days culture; IL-17A/F ELISA
# Protocol: as §1
# Percentage of IL-17 to normal serum (%)=100×(C−A/B−A)
Substance,binding to IL-23 (binding ratio to normal serum) [2],antibody titer (GMT) [1],neutralization activity (percentage of IL-17 to normal serum (%)) [3]
22 (SSSQTWQR; not fully specified (N-terminus)) [compound 22],1.35,2160,8.5%
18 (STSQPWQR; not fully specified (N-terminus)) [compound 18],1.21,8211,0.0%
21 (SSSQSWQR; not fully specified (N-terminus)) [compound 21],1.07,19793,6.9%
12 (SPSQPAQR; not fully specified (N-terminus)) [compound 12],1.12,48594,3.1%
15 (PWQRPWQR; not fully specified (N-terminus)) [compound 15],1.16,458,10%
28 (SKSQPWQR; not fully specified (N-terminus)) [compound 28],1.13,4324,42.2%
37 (QPWQRGGGGSQPWQR; not fully specified (N-terminus)) [compound 37],1.05,6459,63.9%
7 (APSQPWQR; not fully specified (N-terminus)) [compound 7],1.40,5417,4.2%
26 (STSQQWQR; not fully specified (N-terminus)) [compound 26],1.15,64652,0.0%
33 (QPWQR; not fully specified (N-terminus); listed as Homo sapiens) [compound 33],1.00,16458,72.6%
20 (SPSQTWQR; not fully specified (N-terminus)) [compound 20],1.23,36347,5.8%

# Continued, in another order:
binding to IL-23 (binding ratio to normal serum) [2],Substance,antibody titer (GMT) [1],neutralization activity (percentage of IL-17 to normal serum (%)) [3]
0.99,31 (PSQPWQR; not fully specified (N-terminus); listed as Homo sapiens) [compound 31],12417,63.4%
1.01,9 (SPAQPWQR; not fully specified (N-terminus)) [compound 9],4683,4.0%
0.97,34 (PSQPWQRK; not fully specified (N-terminus); listed as Homo sapiens) [compound 34],362,32.5%
1.37,8 (SASQPWQR; not fully specified (N-terminus)) [compound 8],3485,1.4%
1.11,29 (SPKQPWQR; not fully specified (N-terminus)) [compound 29],9056,63.9%
1.10,36 (QPWQRSQPWQR; not fully specified (N-terminus)) [compound 36],8202,70.3%
